Assay: mn = molality of the nth substance listed, in mol/kg
Details: 298.15 K, 101.3 kPa, Liquid, Alternating current cell with electrodes

CCCCC(CC)COC(=O)CC(C(=O)OCC(CC)CCCC)S(=O)(=O)[O-].[Na+] (stereo unspecified) [sodium bis(2-ethylhexyl) sulfosuccinate] + O
Details | electrical conductivity [S/m]
m1 = 0.1687 | 0.00147
m1 = 0.5229 | 0.00389
m1 = 0.8008 | 0.00578
m1 = 1.108 | 0.00786
m1 = 1.374 | 0.00965
m1 = 1.663 | 0.0116
m1 = 2.015 | 0.0139
m1 = 2.327 | 0.0161
m1 = 2.661 | 0.0184
m1 = 3.026 | 0.0213
m1 = 3.398 | 0.0239
m1 = 3.654 | 0.0258
m1 = 3.95 | 0.0279
m1 = 4.202 | 0.0296
m1 = 4.434 | 0.0313
m1 = 4.65 | 0.0328
m1 = 4.896 | 0.0345
m1 = 5.165 | 0.0363
m1 = 5.513 | 0.0387
m1 = 5.782 | 0.0405

O [water] + CCCCC(CC)COC(=O)CC(C(=O)OCC(CC)CCCC)S(=O)(=O)[O-].[Na+]
Details | electrical conductivity [S/m]
m2 = 0 | 0.000327

Reference: the NIST ThermoML archive (doi:10.1021/acs.jced.8b00250)
